Measured values as given in patent publication US8871946B2, “Benzimidazole-4-carboxamide derivatives, their preparation methods, pharmaceutical compositions and their uses” (Zhejiang Medicine Co., Ltd. Xinchang Pharmaceutical Factory, priority 2009, dated 2014).
≈ marks a conversion by molar mass, not a printed value.

The molecules below were run on coxsackie B3 viruses (assay: Measures of anti-coxsackie B3 viruses activity of the compounds in Vero cells). Conditions: half inhibitory concentration for viruses.
Format: cell-based
From the text: Measures of Anti-Coxsackie B3 Viruses Activity of the Compounds The products are applied for measures of antivirus properties of Vero cells. Refer to the results of Table 3: datum of anti-coxsackie B3 viruses activities of some compounds. […] IC50 indicates half inhibitory concentration for viruses. RBV indicates triazole nucleoside, is also called ribavirin, virazole.

Row | Molecule | IC50 [µg/mL]
1 | 2-(2-N-methyl-4-N- methylpiperazinyl)-1H- benzimidazole-4-(N-o- fluorophenyl)amide | 8.9
2 | O=C(Nc1ccc(O)cc1)c1cccc2[nH]c(-c3ccc(O)c(O)c3O)nc12 [2-(2,3,4-trihydroxyphenyl)-1H-benzimidazole-4-(N-p-hydroxyphenyl)amide] | 11.2 (≈ 29.7 µM)
3 | CN1CCN(C)C(c2nc3c(C(=O)Nc4ccc(N)cc4)cccc3[nH]2)C1 (stereo not shown) [2-(2-N-methyl-4-N-methylpiperazinyl)-1H-benzimidazole-4-(N-p-aminophenyl)amide] | 3.5 (≈ 9.6 µM)
4 | O=C(Nc1ccccc1F)c1cccc2[nH]c(-c3cnc(-c4ccccc4)nc3)nc12 [2-(2-phenyl-5-pyrimidinyl)-1H-benzimidazole-4-(N-o-fluorophenyl)amide] | 12.6 (≈ 30.8 µM)
5 | O=C(Nc1ccccc1O)c1cccc2[nH]c(-c3cnc(-c4ccccc4)nc3)nc12 [2-(2-phenyl-5-pyrimidinyl)-1H-benzimidazole-4-(N-o-hydroxyphenyl)amide] | 13.2 (≈ 32.4 µM)
6 | Nc1ccc(NC(=O)c2cccc3[nH]c(-c4cnc(-c5ccccc5)nc4)nc23)cc1 [2-(2-phenyl-5-pyrimidinyl)-1H-benzimidazole-4-(N-p-aminophenyl)amide] | 15.2 (≈ 37.4 µM)
7 | O=C(Nc1ccccc1O)c1cccc2[nH]c(-c3cnccn3)nc12 [2-(2-pyrazinyl)-1H -benzimidazole-4-(N-o-hydroxyphenyl)amide] | 3.5 (≈ 10.6 µM)
8 | O=C(Nc1ccccc1F)c1cccc2[nH]c(-c3cnccn3)nc12 [2-(2-pyrazinyl)-1H-benzimidazole-4-(N-o-fluorophenyl)amide] | 6.5 (≈ 19.5 µM)
9 | Nc1ccc(NC(=O)c2cccc3[nH]c(-c4cnccn4)nc23)cc1 [2-(2-pyrazinyl)-1H-benzimidazole-4-(N-p-aminophenyl)amide] | 4.2 (≈ 12.7 µM)
10 | CC(NC(=O)c1cccc2[nH]c(-c3ccccn3)nc12)C(O)c1ccc(Cl)cc1 (stereo not shown) [2-(2-pyridyl)-1H-benzimidazole-4-[N-(1-methyl-2-p-chlorophenylhydroxyethyl)]amide] | 4.115 (≈ 10.1 µM)
11 | O=C(Nc1ccccc1F)c1cccc2[nH]c(-c3ncccn3)nc12 [2-(2-pyrimidinyl)-1H-benzimidazole-4-(N-o-fluorophenyl)amide] | 8.8 (≈ 26.4 µM)
12 | O=C(Nc1ccccc1O)c1cccc2[nH]c(-c3ncccn3)nc12 [2-(2-pyrimidinyl)-1H-benzimidazole-4-(N-o-hydroxyphenyl)amide] | 7.8 (≈ 23.5 µM)
13 | Nc1ccc(NC(=O)c2cccc3[nH]c(-c4ncccn4)nc23)cc1 [2-(2-pyrimidinyl)-1H-benzimidazole-4-(N-p-aminophenyl)amide] | 9.8 (≈ 29.7 µM)
14 | O=C(Nc1ccccc1F)c1cccc2[nH]c(-c3ccc[nH]3)nc12 [2-(2-pyrrolyl)-1H-benzimidazole-4-(N-o-fluorophenyl)amide] | 9.2 (≈ 28.7 µM)
15 | O=C(Nc1ccccc1F)c1cccc2[nH]c(-c3ccc4ccccc4n3)nc12 [2-(2-quinolinyl)-1H-benzimidazole-4-(N-o-fluorophenyl)amide] | 15.3 (≈ 40 µM)
16 | CC(NC(=O)c1cccc2[nH]c(-c3cccs3)nc12)C(O)c1ccc(Cl)cc1 (stereo not shown) [2-(2-thienyl)-1H-benzimidazole-4-[N-(1-methyl-2-p-chlorophenylhydroxyethyl)]amide] | 5.30 (≈ 12.9 µM)
17 | Cc1cc(C)c(-c2nc3c(C(=O)Nc4ccccc4O)cccc3[nH]2)[nH]1 [2-(3,5-dimethyl-2-pyrrolyl)-1H-benzimidazole-4-(N-o-hydroxyphenyl)amide] | 10.2 (≈ 29.4 µM)
18 | Nc1ccc(NC(=O)c2cccc3[nH]c(-c4c[nH]c5ccccc45)nc23)cc1 [2-(3-indolyl)-1H-benzimidazole-4-(N-p-aminophenyl)amide] | 10.8 (≈ 29.4 µM)
19 | O=C(Nc1ccccc1F)c1cccc2[nH]c(-c3cccnn3)nc12 [2-(3-pyridazinyl)-1H-benzimidazole-4-(N-o-fluorophenyl)amide] | 12.3 (≈ 36.9 µM)
